Patent US10597398B2, “Suppression and regeneration promoting effect of low molecular weight compound on cancer and fibrosis” (NATIONAL UNIVERSITY CORPORATION TOTTORI UNIVERSITY, priority 2015, dated 2020)
pIC50: −log10 of the molar value.

Tests used:
[1] = system: CD44-positive HuH-7 cells; test: Liver cancer model mouse, tumor volume; format: in vivo, mice; conditions: 50 mg/kg IC-2 vs 30 mg/kg 5-FU, intraperitoneally every three days
Experimental: CD44-positive HuH-7 cells were subcutaneously transplanted in mice. Next, the engrafted mice were divided into 3 groups (DMSO group: 5 mice; 5-FU group: 4 mice; and IC-2 group: 4 mice). Then, DMSO was added to prepare 30 mg/kg of 5-FU and 50 mg/kg of IC-2 such that each liquid volume was 100 μL; and 100% DMSO, a solvent for each drug, was used as a control sample. Subsequently, each drug was dosed intraperitoneally every three days. The body weight of each mouse and the long and short diameters of a tumor were measured every three days. The tumor volume was calculated by using the following equation: Tumor volume=Long diameter×(Short diameter)^2×0.5. The volume at Day 0 was used to normalize each tumor volume, and then a graph was created. To fully evaluate a 5-FU effect, the 5-FU dose was set to an amount 2 times the regular amount 15 mg/kg used in research articles. The concentration of IC-2 corresponding to a concentration at which Wnt/β-catenin signaling was inhibited in vitro was calculated. Then, the concentration was doubled to set an IC-2 dose.

liver fibrosis = test: Non-alcoholic steatohepatitis model mouse (Azan staining); format: in vivo, C57BL/6JHamSlc-ob/ob male mice; conditions: high fat diet 12 weeks, drug for last 6 weeks, IC-2 21.2 mg/kg i.p. 3 times a week, vs vehicle group
Experimental: To induce anesthesia, 1-mL disposable syringe with a 27-G needle was used to intraperitoneally inject, into a mouse, 1 μL/g body weight of a systemic anesthetic somnopentyl (Kyoritsuseiyaku Corporation, Tokyo).
The liver tissue sample, as so resected, was fixed in 4% paraformaldehyde at room temperature for 16 h, embedded in paraffin, and sectioned with a microtome to prepare tissue sections. The tissue sections were subjected to deparaffinization using xylene (Nacalai tesque) and a hydration reaction with ethanol (Nacalai tesque), and were then allowed to stand in 5% potassium dichromate/trichloroacetic acid aqueous solution (Wako Pure Chemical Industries, Ltd.) for 20 min. After washing in running water for 5 min, the tissue sections were stained with Azocarmine G (Wako Pure Chemical Industries, Ltd.) at 60° C. for 1 h, washed with water, and then destained for 3 min in 5% aniline (Nacalai tesque)-containing ethanol solution. Next, 5% acetic acid (Nacalai tesque)-containing ethanol solution was used to stop the destaining reaction. After washing with water, the tissue sections were allowed to stand in 5% phosphotungstic acid aqueous solution (Alfa Aesar, Ward Hill, Mass.) for 1 h. […] The ratio of the blue-stained fiber area to the total tissue area of each photographed image was quantified to calculate a fibrosis-positive area ratio. […]

HuH-7 cells = test: Growth inhibitory effect on cancer cells (WST assay), Example 2.3; format: cell-based, human; conditions: HuH-7 cells, WST assay, concentrations 0-50 μM, control 0.1% DMSO
Procedure, shortened: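 HuH-7 human hepatoma cells seeded at 5×10^3 cells/well, treated after 24 h with compound at 0–50 μM (0.1% DMSO vehicle control), n=3. Viability read by WST (CCK-8) absorbance at 450/600 nm after 60 min at 37 °C, taken 0, 24, 48 and 96 h post-treatment; kit-only blank subtracted.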

## O=C1C(Cc2ccccc2)N2C(=O)CCN(C(=O)NCc3ccccc3)C2CN1Cc1cccc2ccccc12 (stereo not drawn) [IC-2]
[1]
  anti-malignant tumor therapeutic effect (tumor volume): more remarkable anti-malignant tumor therapeutic effect than 5-FU
Liver fibrosis
  fibrosis area (Azan staining): decrease more than that of the vehicle group

## COc1ccc(COc2ccc(CNC(=O)N3CCC(=O)N4C(Cc5ccccc5)C(=O)N(Cc5cccc6ccccc56)CC34)cc2)cc1 (stereo not drawn) [IC-2-OPMB]
HuH-7 cells
  pIC50: < 4.30
